Patent publication US7951829B2, “Benzimidazole modulators of VR1” (Janssen Pharmaceutica NV, priority 2006, dated 2011)

Target: T1, hVR1 (Homo sapiens, UniProt Q8NER1)
T1 construct: expressed in transfected cells; host or cells: HEK293
Test: Human VR1 (hVR1) Functional Assay (FLIPR intracellular calcium, capsaicin challenge)
Type: cell-based
Details: capsaicin 0.030 μM, HEK293 cells expressing hVR1; for inhibition at 1 µM: test concentration 1 μM

T1 sequence (Q8NER1 whole entry): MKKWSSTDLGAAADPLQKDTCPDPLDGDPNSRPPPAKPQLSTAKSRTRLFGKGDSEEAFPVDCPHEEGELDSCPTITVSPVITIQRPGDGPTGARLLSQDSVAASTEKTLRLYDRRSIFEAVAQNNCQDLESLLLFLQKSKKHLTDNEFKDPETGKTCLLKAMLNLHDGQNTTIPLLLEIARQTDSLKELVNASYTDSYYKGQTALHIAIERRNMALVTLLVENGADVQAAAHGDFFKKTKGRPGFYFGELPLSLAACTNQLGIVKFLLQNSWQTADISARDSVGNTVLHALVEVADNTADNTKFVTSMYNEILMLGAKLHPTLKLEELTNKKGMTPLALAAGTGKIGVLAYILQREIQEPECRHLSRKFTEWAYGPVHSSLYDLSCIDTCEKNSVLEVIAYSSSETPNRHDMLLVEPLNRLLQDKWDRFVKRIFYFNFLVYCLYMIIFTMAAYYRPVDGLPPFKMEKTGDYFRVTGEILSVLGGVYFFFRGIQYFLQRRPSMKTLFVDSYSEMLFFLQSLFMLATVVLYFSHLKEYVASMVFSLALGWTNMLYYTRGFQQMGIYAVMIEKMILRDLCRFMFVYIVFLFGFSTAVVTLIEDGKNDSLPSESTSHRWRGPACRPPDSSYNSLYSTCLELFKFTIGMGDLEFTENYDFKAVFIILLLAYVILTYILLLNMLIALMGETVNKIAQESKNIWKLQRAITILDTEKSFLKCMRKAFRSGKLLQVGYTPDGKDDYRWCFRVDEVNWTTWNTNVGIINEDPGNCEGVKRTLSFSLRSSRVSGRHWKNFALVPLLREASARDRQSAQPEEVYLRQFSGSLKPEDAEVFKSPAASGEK

| SMILES | IC50 | inhibition at 1 µM | inhibition at 5 µM (test concentration 5 μM (footnote 1)) |
| --- | --- | --- | --- |
| CNS(=O)(=O)c1ccccc1-c1ccc2[nH]c(/C=C/c3ccc(S(=O)(=O)C(F)(F)F)cc3)nc2c1 [Cpd 342, (E)-N-methyl-2-{2-[2-(4-trifluoromethanesulfonyl-phenyl)-vinyl]-1H-benzimidazol-5-yl}-benzenesulfonamide] | 24 nM | 98% |  |
| CC(=O)c1ccccc1-c1cc2nc(/C=C/c3ccc(C(F)(F)F)cc3)[nH]c2cc1Cl [Cpd 67, (E)-1-(2-{6-chloro-2-[2-(4-trifluoromethyl-phenyl)-vinyl]-1H-benzimidazol-5-yl}-phenyl)-ethanone] | 130 nM | 98% |  |
| CC(C)(C)c1ccc(/C=C/c2nc3cc(-c4ccccc4C(N)=O)c(C(F)(F)F)cc3[nH]2)cc1 [Cpd 53, (E)-2-{2-[2-(4-tert-butyl-phenyl)-vinyl]-6-trifluoromethyl-1H-benzimidazol-5-yl}-benzamide] | 47 nM | 98% |  |
| NS(=O)(=O)c1ccccc1-c1ccc2[nH]c(C#Cc3ccc(C(F)(F)F)cc3)nc2c1 [Cpd 250, 2-[2-(4-trifluoromethyl-phenylethynyl)-1H-benzimidazol-5-yl]-benzenesulfonamide] | 19 nM | 98% |  |
| OCc1ccccc1-c1ccc2[nH]c(/C=C/c3ccc(SC(F)(F)F)cc3)nc2c1 [Cpd 35, (E)-(2-{2-[2-(4-trifluoromethylsulfanyl-phenyl)-vinyl]-1H-benzimidazol-5-yl}-phenyl)-methanol] | 41 nM | 100% |  |
| CC(C)(C)OC(=O)Nc1ccccc1-c1ccc2[nH]c(/C=C/c3ccc(C(C)(C)C)cc3)nc2c1 [Cpd 10, (E)-(2-{2-[2-(4-tert-butyl-phenyl)-vinyl]-1H-benzimidazol-5-yl}-phenyl)-carbamic acid tert-butyl ester] | 280 nM | 94% |  |
| CC(C)(C)c1ccc(/C=C/c2nc3cc(-c4ccccc4CO)ccc3[nH]2)cc1 [Cpd 12, (E)-(2-{2-[2-(4-tert-butyl-phenyl)-vinyl]-1H-benzimidazol-5-yl}-phenyl)-methanol] | 10 nM | 100% |  |
| CC(=O)Nc1ccccc1-c1ccc2[nH]c(/C=C/c3ccc(S(=O)(=O)C(F)(F)F)cc3)nc2c1 [Cpd 43, (E)-N-(2-{2-[2-(4-trifluoromethanesulfonyl-phenyl)-vinyl]-1H-benzimidazol-5-yl}-phenyl)-acetamide] | 890 nM | 58% |  |
| CNS(=O)(=O)c1ccccc1-c1ccc2[nH]c(/C=C/c3ccc(F)c(C(F)(F)F)c3)nc2c1 [Cpd 331, (E)-2-{2-[2-(4-fluoro-3-trifluoromethyl-phenyl)-vinyl]-1H-benzimidazol-5-yl}-N-methyl-benzenesulfonamide] | 43 nM | 97% |  |
| CC(C)(O)c1ccccc1-c1ccc2[nH]c(C3CC3c3ccc(Cl)cc3)nc2c1 (centres unmarked) [Cpd 198, 2-(2-{2-[2-(4-chloro-phenyl)-cyclopropyl]-1H-benzimidazol-5-yl}-phenyl)-propan-2-ol] | 10 nM | 95% |  |
| CNS(=O)(=O)c1ccccc1-c1ccc2[nH]c(/C=C/c3ccc(C)cc3)nc2c1 [Cpd 314, (E)-N-methyl-2-[2-(2-p-tolyl-vinyl)-1H-benzimidazol-5-yl]-benzenesulfonamide] | 18 nM | 100% |  |
| CNS(=O)(=O)c1ccccc1-c1ccc2[nH]c(/C=C/c3ccc(Cl)cc3F)nc2c1 [Cpd 339, (E)-2-{2-[2-(4-chloro-2-fluoro-phenyl)-vinyl]-1H-benzimidazol-5-yl}-N-methyl-benzenesulfonamide] | 27 nM | 99% |  |
| CC(C)(C)c1ccc(CCc2nc3cc(-c4ccc(O)cc4)ccc3[nH]2)cc1 [Cpd 34, 4-{2-[2-(4-tert-butyl-phenyl)-ethyl]-1H-benzimidazol-5-yl}-phenol] |  |  | 75% |
| CNS(=O)(=O)c1ccccc1-c1ccc2[nH]c(/C=C/c3ccc(N(C)C)cc3)nc2c1 [Cpd 318, (E)-2-{2-[2-(4-dimethylamino-phenyl)-vinyl]-1H-benzimidazol-5-yl}-N-methyl-benzenesulfonamide] | 50 nM | 100% |  |
| CC(=O)Nc1ccc(-c2ccc3[nH]c(/C=C/c4ccc(C(C)(C)C)cc4)nc3c2)cc1 [Cpd 8, (E)-N-(4-{2-[2-(4-tert-butyl-phenyl)-vinyl]-1H-benzimidazol-5-yl}-phenyl)-acetamide] |  | 10% |  |
| NS(=O)(=O)c1ccccc1-c1ccc2[nH]c(/C=C/c3cc(F)cc(F)c3)nc2c1 [Cpd 361, (E)-2-{2-[2-(3,5-difluoro-phenyl)-vinyl]-1H-benzimidazol-5-yl}-benzenesulfonamide] | 27 nM | 97% |  |
| CC(O)c1ccccc1-c1ccc2[nH]c(/C=C/c3ccc(S(=O)(=O)C(F)(F)F)cc3)nc2c1 (centres unmarked) [Cpd 45, (E)-1-(2-{2-[2-(4-trifluoromethanesulfonyl-phenyl)-vinyl]-1H-benzimidazol-5-yl}-phenyl)-ethanol] | 16 nM | 100% |  |
| CS(=O)(=O)Nc1ccccc1-c1ccc2[nH]c(/C=C/c3ccc(Cl)cc3)nc2c1 [Cpd 77, (E)-N-(2-{2-[2-(4-chloro-phenyl)-vinyl]-1H-benzimidazol-5-yl}-phenyl)-methanesulfonamide] | 76 nM | 100% |  |
| NS(=O)(=O)c1ccccc1-c1ccc2[nH]c(CCc3ccc(Cl)cc3)nc2c1 [Cpd 139, 2-{2-[2-(4-chloro-phenyl)-ethyl]-1H-benzimidazol-5-yl}-benzenesulfonamide] | 31 nM | 98% |  |

Continued, values first:

| IC50 | inhibition at 1 µM | inhibition at 5 µM (test concentration 5 μM (footnote 1)) | SMILES |
| --- | --- | --- | --- |
| 39 nM | 94% |  | CC(C)(O)c1ccccc1-c1ccc2[nH]c(C3CC3c3ccc(OC(F)(F)F)cc3)nc2c1 (centres unmarked) [Cpd 497, 2-(2-{2-[2-(4-trifluoromethoxy-phenyl)-cyclopropyl]-1H-benzimidazol-5-yl}-phenyl)-propan-2-ol] |
| 9 nM | 100% |  | Cc1ccc(/C=C/c2nc3cc(-c4ccccc4S(N)(=O)=O)ccc3[nH]2)cc1 [Cpd 430, (E)-2-[2-(2-p-tolyl-vinyl)-1H-benzimidazol-5-yl]-benzenesulfonamide] |
| 3 nM | 97% |  | CN(C)S(=O)(=O)c1ccccc1-c1ccc2[nH]c(/C=C/c3ccc(C(F)(F)F)cc3)nc2c1 [Cpd 398, (E)-N,N-dimethyl-2-{2-[2-(4-trifluoromethyl-phenyl)-vinyl]-1H-benzimidazol-5-yl}-benzenesulfonamide] |
| 6 nM | 98% |  | NS(=O)(=O)c1ccccc1-c1ccc2[nH]c(CCc3cccc(F)c3F)nc2c1 [Cpd 394, 2-{2-[2-(2,3-difluoro-phenyl)-ethyl]-1H-benzimidazol-5-yl}-benzenesulfonamide] |
| 8 nM | 95% |  | NS(=O)(=O)c1ccccc1-c1ccc2[nH]c(CCc3cccc(OC(F)(F)F)c3)nc2c1 [Cpd 391, 2-{2-[2-(3-trifluoromethoxy-phenyl)-ethyl]-1H-benzimidazol-5-yl}-benzenesulfonamide] |
| 7 nM | 100% |  | NS(=O)(=O)c1ccccc1-c1ccc2[nH]c(/C=C/c3ccc(Cl)cc3F)nc2c1 [Cpd 428, (E)-2-{2-[2-(4-chloro-2-fluoro-phenyl)-vinyl]-1H-benzimidazol-5-yl}-benzenesulfonamide] |
| 71 nM | 97% |  | NS(=O)(=O)c1ccccc1-c1ccc2[nH]c(/C=C/c3c(F)cccc3F)nc2c1 [Cpd 372, (E)-2-{2-[2-(2,6-difluoro-phenyl)-vinyl]-1H-benzimidazol-5-yl}-benzenesulfonamide] |
| 2 nM | 96% |  | CC(C)(O)c1ccccc1-c1ccc2[nH]c(C#Cc3ccccc3)nc2c1 [Cpd 489, 2-[2-(2-phenylethynyl-1H-benzimidazol-5-yl)-phenyl]-propan-2-ol] |
|  | 43% |  | CS(=O)(=O)Nc1ccccc1-c1ccc2[nH]c(/C=C/c3ccc(F)c(Br)c3)nc2c1 [Cpd 409, (E)-N-(2-{2-[2-(3-bromo-4-fluoro-phenyl)-vinyl]-1H-benzimidazol-5-yl}-phenyl)-methanesulfonamide] |
| > 500 nM |  |  | CSc1ccccc1-c1ccc2[nH]c(/C=C/c3ccc(C(F)(F)F)cc3)nc2c1 [Cpd 480, (E)-5-(2-methylsulfanyl-phenyl)-2-[2-(4-trifluoromethyl-phenyl)-vinyl]-1H-benzimidazole] |
| 41 nM | 98% |  | NS(=O)(=O)c1ccccc1-c1ccc2[nH]c(CCc3cc(C(F)(F)F)cc(C(F)(F)F)c3)nc2c1 [Cpd 387, 2-{2-[2-(3,5-bis-trifluoromethyl-phenyl)-ethyl]-1H-benzimidazol-5-yl}-benzenesulfonamide] |
| 28 nM | 100% |  | NS(=O)(=O)c1ccccc1-c1ccc2[nH]c(/C=C/c3cccc(Br)c3)nc2c1 [Cpd 376, (E)-2-{2-[2-(3-bromo-phenyl)-vinyl]-1H-benzimidazol-5-yl}-benzenesulfonamide] |
| 44 nM | 98% |  | NS(=O)(=O)c1cc(C(F)(F)F)ccc1-c1ccc2[nH]c(CCc3ccc(C(F)(F)F)cc3)nc2c1 [Cpd 447, 5-trifluoromethyl-2-{2-[2-(4-trifluoromethyl-phenyl)-ethyl]-1H-benzimidazol-5-yl}-benzenesulfonamide] |
|  | 21% |  | CN(C)Cc1ccccc1-c1ccc2[nH]c(/C=C/c3ccc(C(F)(F)F)cc3)nc2c1 [Cpd 483, (E)-dimethyl-(2-{2-[2-(4-trifluoromethyl-phenyl)-vinyl]-1H-benzimidazol-5-yl}-benzyl)-amine] |
| 52 nM | 93% |  | COc1ccc(C2CC2c2nc3cc(-c4ccccc4C(C)(C)O)ccc3[nH]2)cc1 (centres unmarked) [Cpd 494, 2-(2-{2-[2-(4-methoxy-phenyl)-cyclopropyl]-1H-benzimidazol-5-yl}-phenyl)-propan-2-ol] |
| 22 nM | 95% |  | NS(=O)(=O)c1ccccc1-c1ccc2[nH]c([C@H]3C[C@@H]3c3ccc(C(F)(F)F)cc3)nc2c1 [Cpd 504, 2-{2-[(1S,2S)-2-(4-trifluoromethyl-phenyl)-cyclopropyl]-1H-benzimidazol-5-yl}-benzenesulfonamide] |
